Test results as given in ChEMBL document CHEMBL4808169, “Discovery of Potent and Fast-Acting Antimalarial Bis-1,2,4-triazines” (J Med Chem, 2021).
pIC50: −log10 of the molar value.

How the values were obtained:
Plasmodium berghei = assay: Antiplasmodial activity against Plasmodium berghei ANKA infected in po dosed Swiss mouse administered at 2 hrs post infection and measured on day 4 by Peter's 4-day test; type: functional
Plasmodium falciparum [1] = assay: Antimalarial activity against Plasmodium falciparum 3D7 infected in human red blood cells at 40 uM after 72 hrs by DAPI-staining based assay relative to control; type: functional
[2] = Toxicity in Swiss mouse assessed as loss of mobility at 32 mg/kg/day administered for 4 days; type: organism-based; details: in vivo, 96 h, time 4 day
[3] = Drug metabolism in human liver microsomes assessed as oxygenated metabolite N-methyl-2-(3'-propoxy-5,5'-bi(1,2,4-triazin)-3-yloxy)ethanamine oxide formation by LC-MS/MS(CID) analysis; type: ADME, Microsome
[4] = Drug metabolism in Sprague-Dawley rat urine assessed as oxygenated metabolite N-methyl-2-(3'-propoxy-5,5'-bi(1,2,4-triazin)-3-yloxy)ethanamine oxide formation at 10 mg/kg, po by high-resolution mass spectrometry; type: ADME, organism-based; details: in vivo
[5] = Drug metabolism in Sprague-Dawley rat feces assessed as oxygenated metabolite M+16(2) formation at 3 mg/kg, iv by high-resolution mass spectrometry; type: ADME, organism-based; details: in vivo
[6] = Volume of distribution at steady state in Swiss mouse at 2.7 mg/kg, iv measured up to 24 hrs by LC-MS analysis; type: ADME, organism-based; details: in vivo, read-out: Vdss
[7] = Drug metabolism in Sprague-Dawley rat feces assessed as oxygenated metabolite M+16(2) formation at 10 mg/kg, po by high-resolution mass spectrometry; type: ADME, organism-based; details: in vivo
Plasmodium falciparum [8] = assay: Antiplasmodial activity against Plasmodium falciparum NF54 by 3H-incorporation growth inhibition assay; type: functional, organism-based
[9] = AUC (0 to infinity) in Swiss mouse plasma at 2.8 mg/kg, po measured up to 24 hrs by LC-MS analysis
[10] = Intrinsic clearance in human hepatocytes assessed per million cells by UPLC-MS analysis; type: ADME, cell-based, Hepatocyte; details: read-out: CLH
[11] = Drug metabolism in mouse liver microsomes assessed as formation of cleavage product M-69 by LC-MS/MS(CID) analysis; type: ADME, Microsome
[12] = Drug concentration in blood of NOD-SCID 1L2Rgamma mouse infected with Plasmodium falciparum 3D70087/N9 at 50 mg/kg, po measured at 24 hrs by LC-MS/MS analysis; type: ADME, organism-based; details: in vivo
[13] = Drug metabolism in mouse liver microsomes assessed as oxygenated metabolite M+16(2) formation by LC-MS/MS(CID) analysis; type: ADME, Microsome
[14] = Oral availability in Sprague-Dawley rat at 10 mg/kg measured up to 24 hrs by LC-MS analysis; type: ADME, organism-based; details: in vivo
[15] = Drug metabolism in Sprague-Dawley rat feces assessed as N-methyl-2-(3'-propoxy-5,5'-bi(1,2,4-triazin)-3-yloxy)ethanamine formation at 3 mg/kg, iv by high-resolution mass spectrometry; type: ADME, organism-based; details: in vivo
[16] = Apparent blood clearance in Sprague-Dawley rat at 3 mg/kg, iv measured up to 24 hrs by LC-MS analysis; type: ADME, organism-based; details: read-out: CL(app)
[17] = Kinetic solubility of compound at pH 2 by nephelometry; type: physicochemical; details: buffer, read-out: Kinetic_solubility
[18] = Drug metabolism in Sprague-Dawley rat feces assessed as oxygenated metabolite M+16(1) formation at 10 mg/kg, po by high-resolution mass spectrometry; type: ADME, organism-based; details: in vivo
[19] = Intrinsic clearance in human liver microsomes assessed per mg of protein in presence of NADPH by UPLC-MS analysis; type: ADME, Microsome; details: read-out: CLH
Plasmodium falciparum [20] = assay: Antiplasmodial activity against Plasmodium falciparum K1 by 3H-incorporation growth inhibition assay; type: functional, organism-based; details: pooled result: one value given for 11 cell lines, strains, targets or settings
[21] = Drug metabolism in human hepatocytes assessed as N-methyl-2-(3'-propoxy-5,5'-bi(1,2,4-triazin)-3-yloxy)ethanamine formation by LC-MS/MS(CID) analysis; type: ADME, cell-based, Hepatocyte
Cytochrome P450 3A4 = Cytochrome P450 3A4 (Homo sapiens, UniProt P08684); assay: Inhibition of CYP3A4 in human liver microsomes assessed as reduction in testosterone 6beta-hydroxylation activity by high-pressure liquid chromatography-tandem mass spectrometry; type: ADME
[22] = Drug metabolism in mouse hepatocytes assessed as N-methyl-2-(3'-propoxy-5,5'-bi(1,2,4-triazin)-3-yloxy)ethanamine formation by LC-MS/MS(CID) analysis; type: ADME, cell-based, Hepatocyte
[23] = Drug metabolism in rat liver microsomes assessed as formation of cleavage product M-69 in presence of NADPH by LC-MS/MS(CID) analysis; type: ADME, Microsome
[24] = Drug metabolism in rat liver microsomes assessed as oxygenated metabolite M+16(2) formation by LC-MS/MS(CID) analysis; type: ADME, Microsome
Cytochrome P450 1A2 = biological target: T1, Cytochrome P450 1A2 (Homo sapiens, UniProt P05177); assay: Inhibition of CYP1A2 in human liver microsomes assessed as reduction in […] activity by . high-pressure liquid chromatography-tandem mass spectrometry; type: ADME
T1 sequence (P05177 whole entry): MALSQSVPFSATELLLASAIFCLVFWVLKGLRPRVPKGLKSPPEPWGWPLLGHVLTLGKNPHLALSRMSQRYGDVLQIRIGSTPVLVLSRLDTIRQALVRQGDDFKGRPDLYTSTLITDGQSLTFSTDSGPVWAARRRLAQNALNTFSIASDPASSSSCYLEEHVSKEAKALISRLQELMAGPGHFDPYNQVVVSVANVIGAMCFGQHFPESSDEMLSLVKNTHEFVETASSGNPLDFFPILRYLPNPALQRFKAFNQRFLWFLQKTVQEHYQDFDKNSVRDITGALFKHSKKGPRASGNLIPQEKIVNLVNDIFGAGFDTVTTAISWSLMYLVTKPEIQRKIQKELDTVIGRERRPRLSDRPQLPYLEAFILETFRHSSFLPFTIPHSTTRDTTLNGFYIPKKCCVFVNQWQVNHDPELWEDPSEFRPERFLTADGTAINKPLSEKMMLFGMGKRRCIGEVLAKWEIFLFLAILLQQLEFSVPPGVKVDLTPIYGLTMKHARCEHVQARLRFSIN

[25] = Volume of distribution at steady state in Sprague-Dawley rat plasma at 3 mg/kg, iv measured up to 24 hrs by LC-MS analysis; type: ADME, organism-based; details: read-out: Vdss
[26] = Apparent half life in Swiss mouse at 27 mg/kg, po measured up to 24 hrs by LC-MS analysis; details: in vivo, read-out: t1/2(app) (converted)
Cytochrome P450 2D6 = Cytochrome P450 2D6 (Homo sapiens, UniProt P10635); assay: Inhibition of CYP2D6 in human liver microsomes assessed as reduction in […] activity by . high-pressure liquid chromatography-tandem mass spectrometry; type: ADME
[27] = AUC (0 to infinity) in Swiss mouse plasma at 2.7 mg/kg, iv measured up to 24 hrs; type: ADME, organism-based; set-up: route intravenous, dose 2.7 mg/kg, time <=24
[28] = Drug metabolism in Sprague-Dawley rat feces assessed as oxygenated metabolite N-methyl-2-(3'-propoxy-5,5'-bi(1,2,4-triazin)-3-yloxy)ethanamine oxide formation at 3 mg/kg, iv by high-resolution mass spectrometry; type: ADME, organism-based; details: in vivo

Chain of Cytochrome P450 3A4 (P08684 whole entry): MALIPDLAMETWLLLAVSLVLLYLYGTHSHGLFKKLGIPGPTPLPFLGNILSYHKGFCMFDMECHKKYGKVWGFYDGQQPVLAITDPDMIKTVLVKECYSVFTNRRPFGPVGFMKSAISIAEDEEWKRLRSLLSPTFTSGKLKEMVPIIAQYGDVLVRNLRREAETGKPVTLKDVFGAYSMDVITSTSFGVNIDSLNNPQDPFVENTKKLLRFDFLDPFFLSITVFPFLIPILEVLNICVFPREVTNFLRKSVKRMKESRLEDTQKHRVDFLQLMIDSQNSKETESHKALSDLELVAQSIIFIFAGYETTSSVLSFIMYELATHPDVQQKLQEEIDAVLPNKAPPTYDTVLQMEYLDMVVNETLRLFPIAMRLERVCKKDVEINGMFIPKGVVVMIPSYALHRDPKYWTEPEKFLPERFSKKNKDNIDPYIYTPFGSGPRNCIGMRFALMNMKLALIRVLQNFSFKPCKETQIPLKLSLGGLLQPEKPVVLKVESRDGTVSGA
Chain of Cytochrome P450 2D6 (P10635 whole entry): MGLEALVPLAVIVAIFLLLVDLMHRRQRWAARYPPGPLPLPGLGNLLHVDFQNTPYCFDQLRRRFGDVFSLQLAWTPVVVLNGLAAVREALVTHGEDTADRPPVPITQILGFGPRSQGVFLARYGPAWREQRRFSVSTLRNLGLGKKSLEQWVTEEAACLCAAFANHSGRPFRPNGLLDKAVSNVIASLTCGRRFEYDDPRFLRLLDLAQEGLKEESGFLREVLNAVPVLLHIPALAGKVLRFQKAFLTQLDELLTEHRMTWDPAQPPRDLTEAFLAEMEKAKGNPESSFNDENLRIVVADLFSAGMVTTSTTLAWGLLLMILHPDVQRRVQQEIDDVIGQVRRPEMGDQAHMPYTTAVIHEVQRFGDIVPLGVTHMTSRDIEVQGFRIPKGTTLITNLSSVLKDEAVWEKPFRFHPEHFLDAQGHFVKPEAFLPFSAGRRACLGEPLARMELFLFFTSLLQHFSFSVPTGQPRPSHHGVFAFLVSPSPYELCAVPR

Drug metabolism [3]: Metabolite_Detected
Drug metabolism [4]: Metabolite_Detected
Drug metabolism [5]: Metabolite_Detected
Vd [6]: 3.4 L/kg
Drug metabolism [7]: Metabolite_Detected
AUC(0-inf) [9]: 0.038 µM·h
hepatocyte CLint [10]: 3.6 µL/min/1e6 cells
Drug metabolism [11]: Metabolite_Detected
Drug uptake [12]: < 1e-05 mg/mL
Drug metabolism [13]: Metabolite_Detected
bioavailability [14]: 7.49%
Drug metabolism [15]: Metabolite_Detected
clearance [16]: 205 mL/min/kg
solubility kinetic [17]: > 100 µg/mL
Drug metabolism [18]: Metabolite_Detected
microsomal CLint [19]: 8 µL/min/mg
Drug metabolism [21]: Metabolite_Notdetected
pIC50 (Cytochrome P450 3A4): < 4.70
Drug metabolism [22]: Metabolite_Detected
Drug metabolism [23]: Metabolite_Detected
Drug metabolism [24]: Metabolite_Detected
pIC50 (Cytochrome P450 1A2): < 4.70
Vd [25]: 2.8 L/kg
half-life [26]: 3 h
pIC50 (Cytochrome P450 2D6): < 4.70
AUC(0-inf) [27]: 0.36 µM·h
Drug metabolism [28]: Metabolite_Detected
SMILES: CCCOc1nncc(-c2cnnc(OCCN(C)C)n2)n1
ED50 (Plasmodium berghei): 1.85 mg/kg/day
ED90 (Plasmodium berghei): 4.1 mg/kg/day
Activity (Plasmodium falciparum [1]): 100%
Activity [2]: Non-Toxic
pIC50 (Plasmodium falciparum [8]): 7.68
pIC50 (Plasmodium falciparum [20]): 7.64
